Measurements from PubChem BioAssay AID248 (DTP/NCI, 2004).
Where “and” joins values, the source holds several entries; their conditions need not be identical. Equal values may be shown once. Inconclusive results and toxic doses are left out. Rule as the data show it: active = T/C of 150% or more; inactive = T/C below 125%.

Tested on: L1210 leukemia ip in BDF1 mice, survival T/C
Assay: NCI In Vivo Anticancer Drug Screen. Data for tumor model L1210 Leukemia (intraperitoneal) in B6D2F1 (BDF1) mice
Conditions: endpoint: mean survival time, higher = longer survival
Procedure, shortened: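 In this screen, tumor-bearing mice given compound are compared to those given vehicle, and their survival values are reported as a treated-to-control quotient.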

[1] = dose: 100.0 mg/kg/injection, schedule: Q01DX001 (ip), vehicle: carboxymethylcellulose (CMC)
[2] = dose: 200.0 mg/kg/injection, schedule: Q01DX001 (ip), vehicle: carboxymethylcellulose (CMC)
[3] = dose: 400.0 mg/kg/injection, schedule: Q01DX001 (ip), vehicle: carboxymethylcellulose (CMC)
[4] = dose: 200.0 mg/kg/injection, schedule: Q01DX001 (ip), vehicle: saline
[5] = dose: 400.0 mg/kg/injection, schedule: Q01DX001 (ip), vehicle: saline
[6] = dose: 100.0 mg/kg/injection, schedule: Q01DX001 (ip), vehicle: other
[7] = dose: 200.0 mg/kg/injection, schedule: Q01DX001 (ip), vehicle: other
[8] = dose: 400.0 mg/kg/injection, schedule: Q01DX001 (ip), vehicle: other
[9] = dose: 25.0 mg/kg/injection, schedule: Q04DX003 (ip), vehicle: Klucel (hydroxypropylcellulose) (HPC)
[10] = dose: 50.0 mg/kg/injection, schedule: Q04DX003 (ip), vehicle: Klucel (hydroxypropylcellulose) (HPC)
[11] = dose: 100.0 mg/kg/injection, schedule: Q01DX009 (ip), vehicle: Klucel (hydroxypropylcellulose) (HPC)
[12] = dose: 200.0 mg/kg/injection, schedule: Q01DX009 (ip), vehicle: Klucel (hydroxypropylcellulose) (HPC)
[13] = dose: 400.0 mg/kg/injection, schedule: Q01DX009 (ip), vehicle: Klucel (hydroxypropylcellulose) (HPC)
[14] = dose: 100.0 mg/kg/injection, schedule: Q04DX003 (ip), vehicle: Klucel (hydroxypropylcellulose) (HPC)
[15] = dose: 200.0 mg/kg/injection, schedule: Q04DX003 (ip), vehicle: Klucel (hydroxypropylcellulose) (HPC)
[16] = dose: 400.0 mg/kg/injection, schedule: Q04DX003 (ip), vehicle: Klucel (hydroxypropylcellulose) (HPC)
[17] = dose: 100.0 mg/kg/injection, schedule: Q04DX003 (ip), vehicle: saline
[18] = dose: 12.5 mg/kg/injection, schedule: Q04DX002 (ip), vehicle: Klucel (hydroxypropylcellulose) (HPC)
[19] = dose: 100.0 mg/kg/injection, schedule: Q01DX009 (ip), vehicle: saline with Tween-80
[20] = dose: 200.0 mg/kg/injection, schedule: Q01DX009 (ip), vehicle: saline with Tween-80
[21] = dose: 400.0 mg/kg/injection, schedule: Q01DX009 (ip), vehicle: saline with Tween-80

Measured: T/C

O=C(N/N=C/c1cccc([N+](=O)[O-])c1)C(O)C(O)C(O)C(O)CO (configuration not stated)
inactive: [1] 97 % of control | dose: 100.0 mg/kg/injection, schedule: Q01DX009 (ip), vehicle: carboxymethylcellulose (CMC) 102 % of control | dose: 100.0 mg/kg/injection, schedule: Q04DX002 (ip), vehicle: carboxymethylcellulose (CMC) 100 % of control | dose: 100.0 mg/kg/injection, schedule: Q04DX003 (ip), vehicle: carboxymethylcellulose (CMC) 94 % of control | [2] 104 % of control | dose: 200.0 mg/kg/injection, schedule: Q01DX009 (ip), vehicle: carboxymethylcellulose (CMC) 104 % of control and 91 % of control | dose: 200.0 mg/kg/injection, schedule: Q04DX002 (ip), vehicle: carboxymethylcellulose (CMC) 96 % of control and 106 % of control | dose: 200.0 mg/kg/injection, schedule: Q04DX003 (ip), vehicle: carboxymethylcellulose (CMC) 100 % of control | [3] 95 % of control | dose: 400.0 mg/kg/injection, schedule: Q01DX009 (ip), vehicle: carboxymethylcellulose (CMC) 94 % of control | dose: 400.0 mg/kg/injection, schedule: Q04DX002 (ip), vehicle: carboxymethylcellulose (CMC) 103 % of control and 91 % of control | dose: 400.0 mg/kg/injection, schedule: Q04DX003 (ip), vehicle: carboxymethylcellulose (CMC) 94 % of control

CN1C(=O)C(C)(C)C(=O)C1(C)C
inactive: [4] 100 % of control | [5] 117 % of control

Cc1ccccc1NC(=O)Oc1ccc(Cl)cc1Cl
inactive: dose: 100.0 mg/kg/injection, schedule: Q04DX002 (ip), vehicle: gum acacia 107 % of control | dose: 200.0 mg/kg/injection, schedule: Q04DX002 (ip), vehicle: gum acacia 100 % of control | dose: 400.0 mg/kg/injection, schedule: Q04DX002 (ip), vehicle: gum acacia 104 % of control

CC(C)CCC[C@@H](C)[C@H]1CC[C@H]2[C@@H]3C[C@@H](Br)[C@@]4(Br)C[C@@H](Cl)CC[C@]4(C)[C@H]3CC[C@]12C
inactive: dose: 50.0 mg/kg/injection, schedule: Q01DX001 (ip), vehicle: other 102 % of control | [6] 107 % of control | [7] 96 % of control | [8] 96 % of control

O=C(SCC(NSc1ccccc1[N+](=O)[O-])C(=O)O)c1ccccc1 (configuration not stated)
inactive: dose: 12.0 mg/kg/injection, schedule: Q04DX003 (ip), vehicle: Klucel (hydroxypropylcellulose) (HPC) 90 % of control | dose: 25.0 mg/kg/injection, schedule: Q01DX009 (ip), vehicle: Klucel (hydroxypropylcellulose) (HPC) 95 % of control | [9] 95 % of control | dose: 50.0 mg/kg/injection, schedule: Q01DX009 (ip), vehicle: Klucel (hydroxypropylcellulose) (HPC) 98 % of control | [10] 95 % of control | [11] 98 % of control

COc1ccccc1C(=O)N/N=C/c1ccc(O)cc1
inactive: [11] 101 % of control | [12] 97 % of control | [13] 94 % of control

O=P(Nc1ccc(Cl)c(Cl)c1)(N1CCCCC1)N1CCCCC1
inactive: [14] 93 % of control | [15] 91 % of control | [16] 93 % of control

O=C(O)C(=O)Cc1cccc(Cl)c1[N+](=O)[O-]
inactive: dose: 75.0 mg/kg/injection, schedule: Q04DX003 (ip), vehicle: saline 96 % of control | dose: 150.0 mg/kg/injection, schedule: Q04DX003 (ip), vehicle: saline 102 % of control | dose: 300.0 mg/kg/injection, schedule: Q04DX003 (ip), vehicle: saline 98 % of control

Cc1ccc(S(=O)(=O)OC2C(C(O)CO)OC3OC(C)(C)OC32)cc1 (configuration not stated)
inactive: dose: 100.0 mg/kg/injection, schedule: Q04DX002 (ip), vehicle: saline with Tween-80 90 % of control | dose: 200.0 mg/kg/injection, schedule: Q04DX002 (ip), vehicle: saline with Tween-80 97 % of control | dose: 400.0 mg/kg/injection, schedule: Q04DX002 (ip), vehicle: saline with Tween-80 101 % of control

CCOC(=O)C1(O)CSC(O)(C(=O)OCC)CS1 (configuration not stated)
inactive: [6] 101 % of control | [7] 97 % of control | [8] 92 % of control

NC(=O)CCl
inactive: dose: 12.5 mg/kg/injection, schedule: Q04DX003 (ip), vehicle: Klucel (hydroxypropylcellulose) (HPC) 92 % of control | [9] 95 % of control | dose: 25.0 mg/kg/injection, schedule: Q04DX003 (ip), vehicle: saline 102 % of control | [10] 100 % of control | dose: 50.0 mg/kg/injection, schedule: Q04DX003 (ip), vehicle: saline 97 % of control | [14] 101 % of control | [17] 100 % of control

O=C(Nc1ccc(F)cc1)OCCOc1ccc(Br)cc1
inactive: [11] 95 % of control | [12] 98 % of control | [13] 102 % of control

C[N+](C)(C)/N=C/C1=C(Cl)CCCC1
inactive: dose: 3.13 mg/kg/injection, schedule: Q04DX002 (ip), vehicle: Klucel (hydroxypropylcellulose) (HPC) 94 % of control | dose: 6.25 mg/kg/injection, schedule: Q04DX002 (ip), vehicle: Klucel (hydroxypropylcellulose) (HPC) 102 % of control | [18] 97 % of control | dose: 75.0 mg/kg/injection, schedule: Q01DX001 (ip), vehicle: carboxymethylcellulose (CMC) 114 % of control

CC(C)=CC[Se]c1ncnc2c1ncn2C1OC(CO)C(O)C1O (configuration not stated)
inactive: dose: 12.5 mg/kg/injection, schedule: Q01DX005 (ip), vehicle: saline 91 % of control | dose: 25.0 mg/kg/injection, schedule: Q01DX005 (ip), vehicle: saline 91 % of control | dose: 50.0 mg/kg/injection, schedule: Q01DX005 (ip), vehicle: saline 87 % of control

CCOC(=O)C1CCC(=O)NC1=O (configuration not stated)
inactive: dose: 100.0 mg/kg/injection, schedule: Q01DX009 (ip), vehicle: saline 111 % of control | [17] 98 % of control | dose: 200.0 mg/kg/injection, schedule: Q01DX009 (ip), vehicle: saline 108 % of control | dose: 200.0 mg/kg/injection, schedule: Q04DX003 (ip), vehicle: saline 102 % of control | dose: 400.0 mg/kg/injection, schedule: Q01DX009 (ip), vehicle: saline 101 % of control | dose: 400.0 mg/kg/injection, schedule: Q04DX003 (ip), vehicle: saline 104 % of control

CC(=O)C1(C)Nc2cccc3cccc(c23)N1
inactive: [19] 97 % of control | [20] 106 % of control | [21] 96 % of control

Cc1ccc(N=Nc2c(O)ccc3ccccc23)cc1
inactive: dose: 50.0 mg/kg/injection, schedule: Q01DX001 (ip), vehicle: carboxymethylcellulose (CMC) 91 % of control | [1] 91 % of control | [2] 91 % of control | [3] 91 % of control

CN(C)CCN=Cc1[nH]c(=S)[nH]c(=O)c1Cc1ccc(Cl)cc1
inactive: [14] 101 % of control | [15] 94 % of control | [16] 95 % of control

Cc1ccc(S(=O)(=O)N(C)c2cc(Cl)c(I)c(Cl)c2)cc1
inactive: [11] 98 % of control | [12] 94 % of control | [13] 96 % of control

Cc1cccc2c1OC(=O)CCC21CCCCC1=O (configuration not stated)
inactive: [19] 101 % of control | [20] 98 % of control | [21] 97 % of control

COc1ccc(C(=O)O)c(O)c1O
inactive: [19] 102 % of control | [20] 104 % of control | [21] 101 % of control

NCC(N)C(=O)O (configuration not stated)
inactive: dose: 100.0 mg/kg/injection, schedule: Q01DX001 (ip), vehicle: saline 94 % of control | [4] 97 % of control | [5] 94 % of control

CS(=O)c1nsc(S(C)=O)c1C#N (configuration not stated)
inactive: [18] 122 % of control

CCOC(=O)c1[nH]c(-c2ccccc2)c(C(=O)OCC)c1-c1ccccc1
inactive: [14] 100 % of control | [15] 103 % of control | [16] 115 % of control

COC1OCC(OS(C)(=O)=O)C(NC(C)=O)C1OS(C)(=O)=O (configuration not stated)
inactive: [1] 104 % of control | dose: 177.0 mg/kg/injection, schedule: Q01DX001 (ip), vehicle: carboxymethylcellulose (CMC) 100 % of control | [2] 98 % of control | dose: 266.0 mg/kg/injection, schedule: Q01DX001 (ip), vehicle: carboxymethylcellulose (CMC) 94 % of control and 108 % of control | [3] 94 % of control and 103 % of control | dose: 600.0 mg/kg/injection, schedule: Q01DX001 (ip), vehicle: carboxymethylcellulose (CMC) 97 % of control
